# Literature values, collected in paper PMC3545186 (Biochemical Pharmacology, 2013).
# Experiments:
# [1] = cited from earlier work
# [2] = Asian breast cancer patient population; cited from earlier work
Structure (SMILES),higher plasma concentrations in Abcb1a/1b knockout mice compared to wild type (WT) mice [1],"exposure in individuals homozygous mutant for ABCB1 C1236T, G2677T/A and C3435T [2]"
COc1cc([C@@H]2c3cc4c(cc3[C@@H](O[C@@H]3O[C@@H]5CO[C@@H](C)O[C@H]5[C@H](O)[C@H]3O)[C@H]3COC(=O)[C@H]23)OCO4)cc(OC)c1O [etoposide],1.4 fold,–
COc1cccc2c1C(=O)c1c(O)c3c(c(O)c1C2=O)C[C@@](O)(C(=O)CO)C[C@@H]3O[C@H]1C[C@H](N)[C@H](O)[C@H](C)O1 [doxorubicin],–,significantly higher exposure
